# Data taken from patent publication US12698304B2, “Triterpene saponin variants, methods of synthesis and use thereof” (Memorial Sloan-Kettering Cancer Center, priority 2015, dated 2026).
# System: mice immunized with a four-antigen cocktail (MUC1-KLH, GD3-KLH, OVA)
# Experiment: preclinical mouse vaccination model; antibody titers by ELISA
# Type: in vivo
# Conditions: 5 μg and 20 μg dose of saponin variant (both doses); data not shown
# Description: Panels a-c: anti-KLH (IgG) (Panel a), anti-OVA (IgG) (Panel b), and anti-MUC1 (IgG) (Panel c) antibody titers at 5 μg dose of each saponin variant. […] Median titer values represented as horizontal bars. Statistical significance compared to the no-adjuvant negative control assessed using unpaired Student's t-test with CI=95%: *p≤0.05, **p<0.01, ***p<0.001.
# There is currently no in vitro method to measure adjuvant activity, due in part to the unknown and likely multivariate mechanisms of saponin adjuvant action. Thus, we proceeded directly to testing these QS variants in vivo in a mouse vaccination model. Cohorts of mice were immunized with the saponin variant of interest (5 or 20 μg) and a four-antigen cocktail comprising: (1) the immunogenic peptide MUC1 (prostate and breast cancer antigen, non-glycosylated tandem repeat) conjugated to a highly immunogenic carrier protein KLH (keyhole limpet hemocyanin; MUC1-KLH), (2) the poorly immunogenic ganglioside GD3 (melanoma, neuroblastoma, sarcoma antigen) conjugated to KLH (GD3-KLH), and (3) the immunogenic protein antigen ovalbumin (OVA). The antibody titers elicited against all […] antigens were evaluated by ELISA to compare the adjuvant activity of each QS analogue.
compound,measurement,value
C[C@H]1O[C@@H](OC2C(O)[C@@H](NC(=O)CCCCCCCCCCC(=O)O)C(CO)O[C@@H]2OC(=O)N[C@]23CCC(C)(C)CC2C2=CCC4C5(C)CC[C@H](O[C@@H]6OC(C(=O)O)[C@@H](O)[C@H](O[C@@H]7OC[C@@H](O)[C@H](O)C7O)C6O[C@@H]6OC(CO)[C@H](O)[C@H](O)C6O)[C@](C)(C=O)[C@@H]5CC[C@]4(C)[C@]2(C)CC3O)C(O)C(O)[C@H]1O[C@@H]1OC[C@@H](O)C(O)C1O (stereo partly drawn) [α-4],"adjuvant activity (anti-KLH, anti-OVA, anti-MUC1 IgG antibody titers)",inactive
